Drawing on ChEMBL document CHEMBL5356946, “Recent progress of small-molecule-based theranostic agents in Alzheimer's disease” (RSC Med Chem, 2023), this text covers Kd for one compound.

The test addresses Amyloid-beta precursor protein (Homo sapiens, UniProt P05067). The test is described as follows: Binding affinity to Amyloid-beta (unknown origin) (1 to 42 residues) assessed as dissociation constant incubated for 30 mins by fluorescence based analysis.

Chain of Amyloid-beta precursor protein (P05067 whole entry, the tested form may be a part): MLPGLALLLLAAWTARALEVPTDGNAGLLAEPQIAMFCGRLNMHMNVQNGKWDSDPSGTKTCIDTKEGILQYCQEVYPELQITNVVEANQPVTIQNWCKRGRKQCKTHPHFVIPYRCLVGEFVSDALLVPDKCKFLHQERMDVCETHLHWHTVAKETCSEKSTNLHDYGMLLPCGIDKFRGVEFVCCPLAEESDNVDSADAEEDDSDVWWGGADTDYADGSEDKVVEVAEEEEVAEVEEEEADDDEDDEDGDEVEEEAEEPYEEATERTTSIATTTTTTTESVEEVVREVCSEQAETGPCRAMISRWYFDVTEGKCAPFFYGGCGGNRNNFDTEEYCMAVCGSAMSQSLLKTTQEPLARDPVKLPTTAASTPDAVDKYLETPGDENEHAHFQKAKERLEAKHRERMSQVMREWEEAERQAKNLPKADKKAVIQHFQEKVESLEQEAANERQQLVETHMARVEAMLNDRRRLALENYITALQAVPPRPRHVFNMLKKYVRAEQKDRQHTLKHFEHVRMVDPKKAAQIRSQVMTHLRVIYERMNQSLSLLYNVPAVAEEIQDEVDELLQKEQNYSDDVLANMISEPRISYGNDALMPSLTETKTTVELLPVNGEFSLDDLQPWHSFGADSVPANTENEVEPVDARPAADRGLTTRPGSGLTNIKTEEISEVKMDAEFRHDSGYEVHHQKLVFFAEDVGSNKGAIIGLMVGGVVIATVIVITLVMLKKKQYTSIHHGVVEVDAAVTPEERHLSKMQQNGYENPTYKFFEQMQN

Turning to `CCOC(=O)CN1C(=O)/C(=C/c2ccc3c(c2)Sc2ccccc2N3C)SC1=S`, the Kd is 7.5 nM.
